Results published in patent US20260132123A1, “ABAD INHIBITOR COMPOUNDS” (UNIVERSITY COURT OF THE UNIVERSITY OF ST ANDREWS, priority 2021, published 2026).
Like-named read-outs stand apart in the source and are kept apart here.

Experiments:
[1] = Mouse hepatocyte stability; format: in vitro ADME; design: k: unit not given here; conditions: for Heps Category: hepatocyte metabolism category, mouse; for Cl: clearance; for k: k=absorption rate constant (so in the source)
From the text: (§1) Table 5: Initial mouse hepatocyte stability and plasma protein binding experiments were undertaken on some of the best exemplars from the representative series with AG18051 a previously published 17β-HSD10 inhibitor (C. R. Kissinger et al., J. Mol. Biol., 342 (2004), p. 943; Lim, Y.-A., Grimm, A., Giese, M. PLoS ONE (2011), 6, e28887.) Ref: shown for comparison. Where k=absorption rate constant Cl=clearance, T1/2=half-life, Heps=hepatocyte metabolism, PPB=plasma protein binding.

[2] = test system: SH-SY5Y (neuroblastoma cells); conditions: cited from earlier work
[3] = target: T1, 17β-HSD10 (Homo sapiens, UniProt Q99714); assay: 17β-HSD10 (ABAD) enzyme inhibition assay, NADH oxidation read at 340 nm (primary screen and dose response); format: biochemical; conditions: for EC50 / Max. Effect (%) / Hill Slope / Max. Fit / Min. Fit: recombinant 17βHSD10 enzyme assay; for Hill Slope / Max. Fit / Min. Fit: curve fit
T1 construct: Histev (histidine tag with TEV site) (N, cleaved yes); made in house; host or cells: E. coli BL21-CodonPlus
T1 sequence (Q99714 1-261): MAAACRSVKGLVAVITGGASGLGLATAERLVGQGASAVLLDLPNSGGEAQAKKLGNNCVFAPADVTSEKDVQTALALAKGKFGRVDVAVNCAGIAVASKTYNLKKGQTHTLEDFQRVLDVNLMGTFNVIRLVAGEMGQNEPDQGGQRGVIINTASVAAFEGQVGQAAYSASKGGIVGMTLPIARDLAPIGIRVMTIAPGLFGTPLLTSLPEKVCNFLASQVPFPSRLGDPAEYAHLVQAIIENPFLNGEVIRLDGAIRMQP
Summary of the method: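 Tag-cleaved recombinant human 17β-HSD10 (2.5 nM) preincubated 15 min with compound in Tris pH 7.4, NaCl, DTT, Tween, BSA (catalase in some runs), then 100 μM acetoacetyl-CoA and NADH added. NADH oxidation by A340 fall: 35 min endpoint for screening at 10 μM; continuous 45 min for dose response.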

[4] = Mouse plasma protein binding; format: in vitro ADME
From the text: as §1

[5] = target: T2, 17β-HSD10 in HEK293 mts17β-HSD10 cells (Homo sapiens, UniProt Q99714); assay: (-)-CHANA enzyme activity cell based assay; conditions: cellular 17β-HSD10, HEK 293 cells, (-)-CHANA probe
T2 construct: expressed in transfected cells; host or cells: HEK293
T2 sequence (Q99714 1-261): T1 sequence (Q99714 1-261)
Protocol: HEK293 mts17β-HSD10 cells were seeded at a density of 10,000 cells per well (100 μL, 96 well black plates) in phenol-red free media (10% FBS, 1 mM sodium pyruvate, 100 units penicillin, 0.1 mg/mL streptomycin and 2 mM L-glutamine). After 24 hours the media was removed from the cells and replaced with fresh media containing varying concentrations of compound (100 μM-0.098 μM). The fluorogenic probe (-)-CHANA was then added to each well to give a final assay concentration of 20 μM. Fluorescence was immediately measured using a FLUOstar Optima microplate reader (excitation=380 nm, emission=520 nm, orbital averaging=3 mm) and the initial reaction monitored for 3-4 hours. IC50 was calculated from the control-subtracted triplicates using non-linear regression (four parameters) of GraphPad Prism 5 software. Final IC50 and SEM value was obtained as a mean of at least 3 independent measurements.
REF: (-)-CHANA, a Fluorogenic Probe for Detecting Amyloid Binding Alcohol Dehydrogenase HSD10 Activity in Living Cells Kirsty E. A. Muirhead, Mary Froemming, Xiaoguang Li, Kamil Musilek, Stuart J. Conway, Dalibor Sames, and Frank J. Gunn-Moore ACS Chemical Biology 2010 5 (12), 1105-1114DOI: 10.1021/cb100199m) to monitor the oxidative activity of 17β-HSD10 in living cells. […]

[6] = target: T1, 17β-HSD10; assay: Thermal shift analysis; format: binding; conditions: 20 μM compound, 1 mM NADH
Protocol: Solutions containing compound at two concentrations (25 μM and 100 μM) added to assay buffer (50 mM Hepes, 0.5 M NaCl, pH 8.2, SYPRO orange 20 X, ±1 mM NADH) were plated in triplicate (25 μl per well) in MicroAmp 96-well plates (Thermo Fisher: 4346907). The plates were then sealed with optical grade sealing film (Thermo Fisher: 4311971) and loaded into a ViiA 7 RT-PCR machine ((Thermo Fisher: 4453534) (ramp speed 0.015° C./sec, 25-95° C.)). Data was exported to GraphPad PRISM and Tm values were calculated using the Boltzmann sigmoidal curve fit equation.
The ΔTm for one compound from each series is presented in FIG. 9 with a representative derivative plot of ESC1002033 and ESC1002082 in FIG. 9a.

[7] = target: T1, 17β-HSD10; assay: Mechanism of action against the substrates NADH and AcetoAcetyl CoA; format: biochemical; conditions: for mode of binding with respect to NADH: AcAc in excess at 800 μM; for mode of binding with respect to AcAc: excess of 100 μM NADH
Protocol: To determine the kinetics for acetoacetyl-CoA and the effect of 17β-HSD10 concentration upon reaction rate, a matrix titration experiment was set up. Previously determined conditions were used with a fixed concentration of 700 μM NADH and a starting concentration of up to 200 μM acetoacetyl-CoA. Doubling dilutions of acetoacetyl-CoA were then coupled with doubling dilutions of 17β-HSD10, which started with a maximum concentration of 40 nM. Data collected from the experiment was analysed using a standard template, from which reaction progress curves were analysed to calculate initial velocities and obtain Km values using the Michaelis-Menten equation (XLFit, ID Business Solutions).
To determine the kinetics for NADH and the effect of 17β-HSD10 concentration upon reaction rate a matrix titration experiment was set up. Previously determined conditions (Aitken et al. 2017, supra) were used, 120 μM acetoacetate and a starting concentration of up to 1000 μM NADH. Doubling dilutions of NADH were then coupled with doubling dilutions of 17β-HSD10, which started with a maximum concentration of 40 nM. Data were analysed as described previously (Aitken et al. 2017, supra).
Two compounds, ESC1002033 and ESC1002082, representative of the two different clusters were investigated for their mechanism of action against the substrates, NADH and AcetoAcetyl CoA (AcAc). The ESC inhibitors were tested as 12-point 1 in 1.5 dilution series with a maximal concentration of 2.5 μM.

[8] = Table 5, read-out: Mean ABAD pIC50 (converted)

Row | SMILES | Heps Category [1] | Cl ([1]; mouse hepatocytes) [ml/minute/g liver] | k ([1]; mouse hepatocytes) | Mean ABAD pIC50 ([3]; Table 5) | EC50 [3] [µM] | Max. Effect (%) [3] [%] | Hill Slope [3] | Max. Fit [3] | Min. Fit [3] | Mouse PPB (% free) [4] [% free] | IC50 [3, 8] [µM] | half-life ([1]; mouse hepatocytes, half-life) [min] | also measured
1 | CC(C)CN(C(=O)c1c(F)cccc1F)c1cccc(N(C)Cc2c[nH]cn2)c1 [ESC1002456, 2,6-difluoro-N-[3-[1H-imidazol-4-ylmethyl(methyl)amino]phenyl]-N-isobutyl-benzamide] | High | 8.6 | 0.018 | 6.86 | 0.138 | 97 | 1.2 | 96 | 17 | 8.9 |  |  | 
2 | O=C(c1sccc1Cl)N1CCC[C@H]1c1ccccc1-c1cccc(O)c1 (single isomer, unassigned) [ESC1002755] | High | 105.8 | 0.22 |  | 0.02 | 95 | 1 | 93 | −2 |  | 0.0186 | 3.14 | fold improvement in activity / potency ([3]; relative to the parent compound of the sentence): 40 fold; EC50 [5]: 0.028 µM
3 | O=C(c1sccc1Cl)N1CCC[C@H]1c1ccccc1-c1cc(O)ccc1F (single isomer, unassigned) [ESC1002842] | High | 83.1 | 0.17 |  | 0.0407 | 102 | 1.1 | 98 | −3 | 3.4 | 0.0347 | 4 | 
4 | O=C(c1[nH]ncc1Cl)N1CCC[C@H]1c1ccccc1-c1cccc(O)c1 (single isomer, unassigned) [ESC1002799] | High | 21.9 | 0.046 |  | 0.155 | 97 | 1.1 | 96 | −3 | 9.9 | 0.11 | 15.2 | 
5 | CC(C)CN(C(=O)c1ccccc1F)c1cccc(N(C)Cc2cnc[nH]2)c1 [ESC1002033, 2-fluoro-N-[3-[1H-imidazol-5-ylmethyl(methyl)amino]phenyl]-N-isobutyl-benzamide] | Mod | 6.2 | 0.013 | 6.7 | 0.2 | 99 | 1 | 99 | −3 |  |  |  | ΔTm at 20 µM [6]: 6.75 °C; mode of binding with respect to NADH [7]: non-competitively; mode of binding with respect to AcAc [7]: competitively

More lines, main results first:

Row | Heps Category [1] | Cl ([1]; mouse hepatocytes) [ml/minute/g liver] | k ([1]; mouse hepatocytes) | Mean ABAD pIC50 ([3]; Table 5) | EC50 [3] [µM] | Max. Effect (%) [3] [%] | Hill Slope [3] | Max. Fit [3] | Min. Fit [3] | Mouse PPB (% free) [4] [% free] | IC50 [3, 8] [µM] | half-life ([1]; mouse hepatocytes, half-life) [min] | SMILES | also measured
6 | High | 50.5 | 0.11 |  |  |  |  |  |  |  |  |  | O=C(C(c1ccccc1)n1cnc2[nH]ncc2c1=S)N1CCCCCC1 (centres unmarked) [AG18051, reference compound] | T1/2 ([1]; mouse hepatocytes, half-life): 6.58 min; protection from Aβ mediated cytotoxicity [2]: protect cultured SH-SY5Y cells from Aβ mediated cytotoxicity
7 | Mod | 5.8 | 0.012 | 6.57 | 0.269 | 102 | 1.3 | 101 | 10 | 7.6 |  |  | Cc1ccc(C(=O)N(CC(C)C)c2cccc(N(C)Cc3c[nH]cn3)c2)c(F)c1 [ESC1002575, 2-fluoro-N-[3-[1H-imidazol-4-ylmethyl(methyl)amino]phenyl]-N-isobutyl-4-methyl-benzam] | 
8 |  |  |  |  | 0.794 | 96 | 1.1 | 98 | 0 |  |  |  | COc1ccc(-c2ccccc2C2CCCN2C(=O)c2sccc2C)cn1 (racemic) [ESC1002082, [2-[2-(6-methoxy-3-pyridyl)phenyl]pyrrolidin-1-yl]-(3-methyl-2-thienyl)methanone] | 17β-HSD10 pIC50 ([3]; 17β-HSD10 dose response / inhibition assay): 6.1; IC50 ([3]; primary screening, resynthesized HTS hit compounds, read-out: ABAD plC50 (converted)): 0.794 µM; mode of binding with respect to NADH [7]: non-competitively; mode of binding with respect to AcAc [7]: competitively
